# From ChEMBL document CHEMBL1152085, “Novel 3-deoxy-3-descladinosyl-6-O-methyl erythromycin a analogues. Synthesis and in vitro activity” (1997)
# What was measured:
# Type in all cases: functional
# Enterococcus faecium [1] = experiment: Tested in vitro for minimum inhibitory concentration to produce antibacterial activity against Enterococcus faecium ATCC 8043
# Enterococcus faecium [2] = experiment: Tested in vitro for minimum inhibitory concentration to produce antibacterial activity against Enterococcus faecium ATCC 8043 in presence of erythromycin A
# Escherichia coli [3] = experiment: Tested in vitro for minimum inhibitory concentration to produce antibacterial activity against Escherichia coli JUHL
# Escherichia coli [4] = experiment: Tested in vitro for minimum inhibitory concentration to produce antibacterial activity against Escherichia coli JUHL in presence of erythromycin A
# Escherichia coli [5] = experiment: Tested in vitro for minimum inhibitory concentration to produce antibacterial activity against Escherichia coli SS
# Escherichia coli [6] = experiment: Tested in vitro for minimum inhibitory concentration to produce antibacterial activity against Escherichia coli SS in presence of erythromycin A
# [7] = system: Staphylococcus epidermidis; experiment: Tested in vitro for minimum inhibitory concentration to produce antibacterial activity against Staphylococcus epidermidis 3519
# [8] = system: Staphylococcus epidermidis; experiment: Tested in vitro for minimum inhibitory concentration to produce antibacterial activity against Staphylococcus epidermidis 3519 in presence of erythromycin A
# Streptococcus pyogenes [9] = experiment: Tested in vitro for minimum inhibitory concentration to produce antibacterial activity against Streptococcus pyogenes 930
# Streptococcus pyogenes [10] = experiment: Tested in vitro for minimum inhibitory concentration to produce antibacterial activity against Streptococcus pyogenes 930 in presence of erythromycin A
# Streptococcus pyogenes [11] = experiment: Tested in vitro for minimum inhibitory concentration to produce antibacterial activity against Streptococcus pyogenes EES61
# Streptococcus pyogenes [12] = experiment: Tested in vitro for minimum inhibitory concentration to produce antibacterial activity against Streptococcus pyogenes EES61 in presence of erythromycin A
# Streptococcus pyogenes [13] = experiment: Tested in vitro for minimum inhibitory concentration to produce antibacterial activity against Streptococcus pyogenes PIU 2548
# Streptococcus pyogenes [14] = experiment: Tested in vitro for minimum inhibitory concentration to produce antibacterial activity against Streptococcus pyogenes PIU 2548 in presence of erythromycin A
# Streptococcus agalactiae [15] = experiment: Tested in vitro for minimum inhibitory concentration to produce antibacterial activity against Streptococcus agalactiae CMX 508
# Streptococcus agalactiae [16] = experiment: Tested in vitro for minimum inhibitory concentration to produce antibacterial activity against Streptococcus agalactiae CMX 508 in presence of erythromycin A
# Staphylococcus aureus [17] = experiment: Tested in vitro for minimum inhibitory concentration to produce antibacterial activity against Staphylococcus aureus 1775
# Staphylococcus aureus [18] = experiment: Tested in vitro for minimum inhibitory concentration to produce antibacterial activity against Staphylococcus aureus 1775 in presence of erythromycin A
# Staphylococcus aureus [19] = experiment: Tested in vitro for minimum inhibitory concentration to produce antibacterial activity against Staphylococcus aureus A-5278
# Staphylococcus aureus [20] = experiment: Tested in vitro for minimum inhibitory concentration to produce antibacterial activity against Staphylococcus aureus A-5278 in presence of erythromycin A
# Staphylococcus aureus [21] = experiment: Tested in vitro for minimum inhibitory concentration to produce antibacterial activity against Staphylococcus aureus A5177
# Staphylococcus aureus [22] = experiment: Tested in vitro for minimum inhibitory concentration to produce antibacterial activity against Staphylococcus aureus A5177 in presence of erythromycin A
# Staphylococcus aureus [23] = experiment: Tested in vitro for minimum inhibitory concentration to produce antibacterial activity against Staphylococcus aureus ATCC 6538P
# Staphylococcus aureus [24] = experiment: Tested in vitro for minimum inhibitory concentration to produce antibacterial activity against Staphylococcus aureus ATCC 6538P in presence of erythromycin A
# Staphylococcus aureus [25] = experiment: Tested in vitro for minimum inhibitory concentration to produce antibacterial activity against Staphylococcus aureus CMX 553
# Staphylococcus aureus [26] = experiment: Tested in vitro for minimum inhibitory concentration to produce antibacterial activity against Staphylococcus aureus CMX 553 in presence of erythromycin A
# Staphylococcus aureus [27] = experiment: Tested in vitro for minimum inhibitory concentration to produce antibacterial activity against Staphylococcus aureus CMX 642A
# Staphylococcus aureus [28] = experiment: Tested in vitro for minimum inhibitory concentration to produce antibacterial activity against Staphylococcus aureus CMX 642A in presence of erythromycin A
# Streptococcus equinus [29] = experiment: Tested in vitro for minimum inhibitory concentration to produce antibacterial activity against Streptococcus bovis A-5169
# Streptococcus equinus [30] = experiment: Tested in vitro for minimum inhibitory concentration to produce antibacterial activity against Streptococcus bovis A-5169 in presence of erythromycin A
# Staphylococcus aureus [31] = experiment: Tested in vitro for minimum inhibitory concentration to produce antibacterial activity against Staphylococcus aureus NCTC-10649M
# Staphylococcus aureus [32] = experiment: Tested in vitro for minimum inhibitory concentration to produce antibacterial activity against Staphylococcus aureus NCTC-10649M in presence of erythromycin A
SMILES,MIC (Enterococcus faecium [1]) [µg/mL],MIC (Enterococcus faecium [2]) [µg/mL],MIC (Escherichia coli [3]) [µg/mL],MIC (Escherichia coli [4]) [µg/mL],MIC (Escherichia coli [5]) [µg/mL],MIC (Escherichia coli [6]) [µg/mL],MIC [7] [µg/mL],MIC [8] [µg/mL],MIC (Streptococcus pyogenes [9]) [µg/mL],MIC (Streptococcus pyogenes [10]) [µg/mL],MIC (Streptococcus pyogenes [11]) [µg/mL],MIC (Streptococcus pyogenes [12]) [µg/mL],MIC (Streptococcus pyogenes [13]) [µg/mL],MIC (Streptococcus pyogenes [14]) [µg/mL],MIC (Streptococcus agalactiae [15]) [µg/mL],MIC (Streptococcus agalactiae [16]) [µg/mL],MIC (Staphylococcus aureus [17]) [µg/mL],MIC (Staphylococcus aureus [18]) [µg/mL],MIC (Staphylococcus aureus [19]) [µg/mL],MIC (Staphylococcus aureus [20]) [µg/mL],further results
CC[C@H]1OC(=O)[C@H](C)C[C@H](C)[C@@H](O[C@@H]2O[C@H](C)C[C@H](N(C)C)[C@H]2O)[C@](C)(OC)C[C@@H](C)/C(=N\O)[C@H](C)[C@@H](O)[C@]1(C)O,3.1,0.05,> 100,50,0.78,0.2,12.5,0.2,> 100,> 100,0.78,0.01,1.56,6.2,0.78,0.01,> 100,> 100,> 100,> 100,MIC (Staphylococcus aureus [21]): 25 µg/mL; MIC (Staphylococcus aureus [22]): 3.1 µg/mL; MIC (Staphylococcus aureus [23]): 12.5 µg/mL; MIC (Staphylococcus aureus [24]): 0.2 µg/mL; MIC (Staphylococcus aureus [25]): 12.5 µg/mL; MIC (Staphylococcus aureus [26]): 0.2 µg/mL; MIC (Staphylococcus aureus [27]): 12.5 µg/mL; MIC (Staphylococcus aureus [28]): 0.2 µg/mL; MIC (Streptococcus equinus [29]): 0.78 µg/mL; MIC (Streptococcus equinus [30]): 0.05 µg/mL; MIC (Staphylococcus aureus [31]): 12.5 µg/mL; MIC (Staphylococcus aureus [32]): 0.2 µg/mL
CC[C@H]1OC(=O)[C@H](C)C[C@H](C)[C@@H](O[C@@H]2O[C@H](C)C[C@H](N(C)C)[C@H]2O)[C@](C)(OC)C[C@@H](C)C(=O)[C@H](C)[C@H]2OC(=O)O[C@@]21C,0.78,0.05,> 100,50,0.78,0.2,6.2,0.2,> 100,> 100,0.2,0.01,0.78,6.2,0.2,0.01,> 100,> 100,> 100,> 100,MIC (Staphylococcus aureus [21]): 3.1 µg/mL; MIC (Staphylococcus aureus [22]): 3.1 µg/mL; MIC (Staphylococcus aureus [23]): 6.2 µg/mL; MIC (Staphylococcus aureus [24]): 0.2 µg/mL; MIC (Staphylococcus aureus [25]): 3.1 µg/mL; MIC (Staphylococcus aureus [26]): 0.2 µg/mL; MIC (Staphylococcus aureus [27]): 3.1 µg/mL; MIC (Staphylococcus aureus [28]): 0.2 µg/mL; MIC (Streptococcus equinus [29]): 0.2 µg/mL; MIC (Streptococcus equinus [30]): 0.05 µg/mL; MIC (Staphylococcus aureus [31]): 6.2 µg/mL; MIC (Staphylococcus aureus [32]): 0.2 µg/mL
CC[C@H]1OC(=O)[C@H](C)C[C@H](C)[C@@H](O[C@@H]2O[C@H](C)C[C@H](N(C)C)[C@H]2O)[C@](C)(OC)C[C@@H](C)C(=O)[C@H](C)[C@@H](O)[C@]1(C)O,25,0.05,> 100,50,0.78,0.1,50,0.1,> 100,> 100,1.56,0.02,3.1,6.2,3.1,0.02,> 100,> 100,> 100,> 100,MIC (Staphylococcus aureus [21]): 25 µg/mL; MIC (Staphylococcus aureus [22]): 1.56 µg/mL; MIC (Staphylococcus aureus [23]): 25 µg/mL; MIC (Staphylococcus aureus [24]): 0.1 µg/mL; MIC (Staphylococcus aureus [25]): 25 µg/mL; MIC (Staphylococcus aureus [26]): 0.2 µg/mL; MIC (Staphylococcus aureus [27]): 25 µg/mL; MIC (Staphylococcus aureus [28]): 0.2 µg/mL; MIC (Streptococcus equinus [29]): 0.78 µg/mL; MIC (Streptococcus equinus [30]): 0.02 µg/mL; MIC (Staphylococcus aureus [31]): 6.2 µg/mL; MIC (Staphylococcus aureus [32]): 0.2 µg/mL
